Laboratory results from US20140221429A1, “HETEROCYCLIC SCHIFF'S BASES AS NOVEL AND NEW ANTIGLYCATION AGENTS” (priority 2013, published 2014).
Values joined by “and” are separate entries in the source; they are usually repeats but may differ in a detail not shown here. Equal entries are not always repeated. Where two headings read alike, the source gives them in different places. Each block holds one compound with its values, some of them ahead of it.

Target: T1, bovine serum albumin (BSA-methylglyoxal glycation) (Bos taurus, UniProt P02769)
T1 construct: purchased Merck Marker Pvt; Ltd. (Germany)
T1 sequence (P02769 25-607): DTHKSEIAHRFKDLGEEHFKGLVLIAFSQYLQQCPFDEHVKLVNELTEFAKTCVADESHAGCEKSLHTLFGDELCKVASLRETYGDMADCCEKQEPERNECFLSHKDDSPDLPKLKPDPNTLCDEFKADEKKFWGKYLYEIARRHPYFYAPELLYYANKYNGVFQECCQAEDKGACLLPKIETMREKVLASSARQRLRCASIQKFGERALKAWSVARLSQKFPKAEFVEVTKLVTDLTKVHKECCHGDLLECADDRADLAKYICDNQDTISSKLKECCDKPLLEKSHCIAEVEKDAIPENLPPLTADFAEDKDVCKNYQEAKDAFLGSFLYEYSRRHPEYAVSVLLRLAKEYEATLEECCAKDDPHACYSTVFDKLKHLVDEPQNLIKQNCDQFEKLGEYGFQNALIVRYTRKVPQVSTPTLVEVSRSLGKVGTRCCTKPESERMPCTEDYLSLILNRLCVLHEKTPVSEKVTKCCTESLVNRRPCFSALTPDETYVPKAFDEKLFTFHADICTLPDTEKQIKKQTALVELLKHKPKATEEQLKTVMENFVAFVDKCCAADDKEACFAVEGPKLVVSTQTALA
Assay: in vitro BSA-MG glycation model (antiglycation assay)
Type: biochemical
Details: for inhibition at 1000 µM: read-out: inhibition of protein glycation
Protocol: Bovine Serum Albumin (BSA) was purchased from Merck Marker Pvt. Ltd. (Germany), rutin and methylglyoxal (MG) (40% aqueous solution) were from Sigma Aldrich (Japan), sodium dihydrogen phosphate (NaH2PO4), disodium hydrogen phosphate (Na2HPO4) and sodium azide (NaN3) were purchased from Scharlau Chemie, S. A. (Spain), while dimethyl sulphoxide (DMSO) was purchased from Fischer Scientific (UK).
The total reaction volume of the assay was 200 μL, having final concentrations of 10 mg/mL BSA, 14 mM methylglyoxal, and 1 mM test compounds. 10 mg/mL solution of BSA and 14 mM methylglyoxal was prepared in 0.1 M phosphate buffer (pH 7.4), containing sodium azide (NaN3) (30 mM) as antimicrobial agent, while 1 mM solutions of test compounds were prepared in the DMSO. Assay was performed in triplicate. Each reaction mixtures were comprised of 50 μL BSA, 50 μL methylglyoxal, 20 μL test compound and 80 μL phosphate buffer (pH 7.4). The reaction mixture was incubated under aseptic conditions at 37° C. for 9 days.
After completion of nine days of incubation, each sample was examined for the development of specific fluorescence (excitation 330 nm; emission 420 nm) against blank on a microtitre plate reader (SpectraMax M2, Molecular Devices, CA, USA).
The percent inhibition of AGE formation by the test sample versus control was calculated by using the following formula:
% Inhibition=([…]−Fluorescence of test sample/Fluorescence of the control)×100
The IC50 (i.e. the concentration of test samples that inhibit the process of glycation to 50%) was determined by monitoring the effect of various concentrations (ranges from 1000-50 μM) of test compounds. The IC50 values were calculated by using EZ-FIT Enzyme Kinetics Program (Perrella Scientific Inc., Amherst, USA). The antiglycation potential of test compounds was compared with rutin, which was used as standard inhibitor.

[1] = Antiglycation Studies IC50 ± SEM, BSA-MG model, 10 mg/mL BSA, 14 mM methylglyoxal, 37° C., 9 days, fluorescence ex 330/em 420 nm

SMILES: C[C@@H]1O[C@@H](OC[C@H]2O[C@@H](Oc3c(-c4ccc(O)c(O)c4)oc4cc(O)cc(O)c4c3=O)[C@H](O)[C@@H](O)[C@@H]2O)[C@H](O)[C@H](O)[C@H]1O [Rutin, reference compound]
- IC50 (BSA-MG model, 10 mg/mL BSA, 14 mM methylglyoxal, 37° C., 9 days, fluorescence ex 330/em 420 nm, read-out: Antiglycation Studies IC50 ± SEM): 294 µM and 295 µM

SMILES: O=C(NN=Cc1ccco1)c1cccs1 [Compound 3, 2-Thiophenecarboxylic acid, (2-furanylmethylene)hydrazide (9CI)]
- IC50 [1]: 520.8 ± 1.8 µM
- antiglycation activity (in words) (BSA-MG model): moderate inhibition

SMILES: Cc1ccc(C=NNC(=O)c2cccs2)o1 [Compound 4, 2-Thiophencarboxylic acid, [(5-methyl-2-furanyl)methylene] hydrazide (9CI)]
- IC50 (Antiglycation IC50 (unit printed as μ), BSA-MG model assay): 442.8 ± 0.68 µM
- IC50 [1]: 442.8 ± 0.68 µM
- antiglycation activity (in words) (BSA-MG model): moderate inhibition

SMILES: O=C(NN=Cc1ccccc1[N+](=O)[O-])c1ccccc1 [Compound 2, N′-(2-Nitrobenzylidene)benzohydrazide]
- Antiglycation Studies IC50 ± SEM: Inactive
- antiglycation activity (in words): inactive
- inhibition at 1000 µM: < 50%

SMILES: O=C(NN=Cc1cccc([N+](=O)[O-])c1)c1ccccc1 [Compound 1, N′-(3-Nitrobenzylidene)benzohydrazide]
- Antiglycation Studies IC50 ± SEM: Inactive
- antiglycation activity (in words): inactive
- inhibition at 1000 µM: < 50%

More lines, now with the values ahead:

- IC50 [1]: 862.8 ± 3.3 µM
SMILES: C(=Nc1ccc(Cc2ccc(N=Cc3ccccn3)cc2)cc1)c1ccccn1 [Compound 6, Bis[4-(2-pyridylmethyleneamino)phenyl]methane]

- IC50 [1]: 397.2 ± 2.2 µM
SMILES: C(=NNc1ccccn1)c1ccccn1 [Compound 5, 1,3-Bis(2′-pyridyl)-1,2-diazapropen-2-ene]
